Measured values as given in patent US9555022B2, “Substituted triazolopyridines” (Bayer Intellectual Property GmbH, priority 2010, dated 2017).
Structures can show the parent of a compound that is named as a salt.

Target: human full length recombinant Mps-1 kinase (Homo sapiens (Human), UniProt P33981)
Assay: Mps-1 Kinase Assay (TR-FRET)
Assay type: biochemical
Conditions: 10 μM ATP, 1 μM biotinylated peptide substrate, 60 min at 22° C., read-out: Mps-1 Inhibition, IC50 in M
Description: The human kinase Mps-1 phosphorylates a biotinylated substrate peptide. Detection of the phosphorylated product is achieved by time-resolved fluorescence resonance energy transfer (TR-FRET) from Europium-labelled anti-phospho-Serine/Threonine antibody as donor to streptavidin labelled with cross-linked allophycocyanin (SA-XLent) as acceptor. Compounds are tested for their inhibition of the kinase activity.
N-terminally GST-tagged human full length recombinant Mps-1 kinase (purchased from Invitrogen, Karslruhe, Germany, cat. no PV4071) was used. As substrate for the kinase reaction a biotinylated peptide of the amino-acid sequence […] (C-terminus in amide form, purchased from Biosynthan GmbH, Berlin) was used.
The concentration of Mps-1 in the assay was adjusted to the activity of the enzyme lot and was chosen appropriate to have the assay in the linear range, typical enzyme concentrations were in the range of about 1 nM (final conc. in the 5 μl assay volume).
The resulting mixture was incubated 1 h at 22° C. to allow the binding of the phosphorylated peptide to the anti-phospho(Ser/Thr)-Europium-antibody. Subsequently the amount of phosphorylated substrate was evaluated by measurement of the resonance energy transfer from the Europium-labelled anti-phospho(Ser/Thr) antibody to the Streptavidin-XLent.

human full length recombinant Mps-1 kinase, sequence (P33981 whole entry): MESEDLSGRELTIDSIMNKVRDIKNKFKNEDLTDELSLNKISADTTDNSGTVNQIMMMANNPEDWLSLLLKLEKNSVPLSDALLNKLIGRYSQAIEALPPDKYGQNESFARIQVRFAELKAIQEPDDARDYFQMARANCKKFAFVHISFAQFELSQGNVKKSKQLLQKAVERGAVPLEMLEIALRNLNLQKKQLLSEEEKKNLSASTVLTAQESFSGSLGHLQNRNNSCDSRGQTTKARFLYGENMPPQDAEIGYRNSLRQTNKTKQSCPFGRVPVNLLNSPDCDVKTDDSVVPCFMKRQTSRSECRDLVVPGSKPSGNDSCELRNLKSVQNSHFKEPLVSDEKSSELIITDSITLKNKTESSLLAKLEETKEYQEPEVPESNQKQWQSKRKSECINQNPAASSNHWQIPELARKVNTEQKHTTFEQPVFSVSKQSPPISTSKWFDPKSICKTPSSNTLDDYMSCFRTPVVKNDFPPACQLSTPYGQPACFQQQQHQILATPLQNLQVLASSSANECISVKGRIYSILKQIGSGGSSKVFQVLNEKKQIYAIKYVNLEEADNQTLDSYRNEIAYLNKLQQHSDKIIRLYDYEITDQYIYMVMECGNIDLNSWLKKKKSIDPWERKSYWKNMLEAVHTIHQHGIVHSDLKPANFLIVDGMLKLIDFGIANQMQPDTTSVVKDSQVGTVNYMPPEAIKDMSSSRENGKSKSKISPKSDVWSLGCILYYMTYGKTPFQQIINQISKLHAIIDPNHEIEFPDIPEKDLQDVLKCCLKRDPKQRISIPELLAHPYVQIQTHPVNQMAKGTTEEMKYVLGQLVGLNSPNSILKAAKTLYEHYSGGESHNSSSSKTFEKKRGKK

Row | Compound | IC50 [nM]
1 | COc1cc(C(=O)N2CCOCC2)ccc1Nc1nc2ccc(-c3ccc(NC(=O)CC4CC4)cc3)cn2n1 [Example 01.01, 2-cyclopropyl-N-[4-(2-{[2-methoxy-4-(morpholin-4-ylcarbonyl)phenyl]amino}[,2]-triazolo[1,5-a]pyridin-6-yl)phenyl]acetamide] | 5.56
2 | CCOc1cc(C(=O)N2CCOCC2)ccc1Nc1nc2ccc(-c3ccc(NC(=O)CC4CC4)cc3)cn2n1 [Example 01.02, 2-cyclopropyl-N-[4-(2-{[2-ethoxy-4-(morpholin-4-ylcarbonyl)phenyl]amino}[,2]-triazolo[1,5-a]pyridin-6-yl)phenyl]acetamide] | ≤ 1
3 | COc1cc(N2CCN(C)CC2)ccc1Nc1nc2ccc(-c3ccc(NC(=O)CC4CC4)cc3)cn2n1 [Example 01.03, 2-cyclopropyl-N-[4-(2-{[2-methoxy-4-(4-methylpiperazin-1-yl)phenyl]amino}[,2]-triazolo[1,5-a]pyridin-6-yl)phenyl]acetamide trifluoroacetate] | 6.02
4 | CCOc1cc(C(=O)N2CCOCC2)ccc1Nc1nc2ccc(-c3ccc(NC(=O)Cc4ccc(F)cc4)cc3)cn2n1 [Example 02.02, N-[4-(2-{[2-ethoxy-4-(morpholin-4-ylcarbonyl)phenyl]amino}[,2]-triazolo[1,5-a]pyridin-6-yl)phenyl]-2-(4-fluorophenyl)acetamide] | ≤ 1
5 | COc1cc(C2=NC(C)(C)CO2)ccc1Nc1nc2ccc(-c3ccc(NC(=O)Cc4ccc(F)cc4)cc3)cn2n1 [Example 02.03, N-[4-(2-{[4-(4,4-dimethyl-4,5-dihydro-1,3-oxazol-2-yl)-2-methoxyphenyl]amino}[,2]-triazolo[1,5-a]pyridin-6-yl)phenyl]-2-(4-fluorophenyl)acetamide] | 1.04
6 | COc1cc(C(=O)N2CCN(C)CC2)ccc1Nc1nc2ccc(-c3ccc(NC(=O)Cc4ccc(F)cc4)cc3)cn2n1 [Example 02.04, 2-(4-fluorophenyl)-N-{4-[2-({2-methoxy-4-[(4-methylpiperazin-1-yl)carbonyl]phenyl}amino)[,2]triazolo[1,5-a]pyridin-6-yl]phenyl}acetamide] | ≤ 1
7 | CCOc1cc(C(=O)N2CCN(C(=O)OC(C)(C)C)CC2)ccc1Nc1nc2ccc(-c3ccc(NC(=O)Cc4ccc(F)cc4)cc3)cn2n1 [Example 02.05, tert-butyl 4-(3-ethoxy-4-{[6-(4-{[(4-fluorophenyl)acetyl]amino}phenyl)[,2]triazolo[1,5-a]pyridin-2-yl]amino}benzoyl)piperazine-1-carboxylate] | ≤ 1
8 | CCOc1cc(C(=O)N2CCNCC2)ccc1Nc1nc2ccc(-c3ccc(NC(=O)Cc4ccc(F)cc4)cc3)cn2n1 [Example 02.06, N-[4-(2-{[2-ethoxy-4-(piperazin-1-ylcarbonyl)phenyl]amino}[,2]-triazolo[1,5-a]pyridin-6-yl)phenyl]-2-(4-fluorophenyl)acetamide] | ≤ 1
9 | CCOc1cc(C(=O)N2CCN(CC3CC3)CC2)ccc1Nc1nc2ccc(-c3ccc(NC(=O)Cc4ccc(F)cc4)cc3)cn2n1 [Example 02.07, N-(4-{2-[(4-{[4-(cyclopropylmethyl)piperazin-1-yl]carbonyl}-2-ethoxyphenyl)amino][,2]triazolo[1,5-a]pyridin-6-yl}phenyl)-2-(4-fluorophenyl)acetamide] | ≤ 1
10 | COc1cc(N2CCN(C)CC2)ccc1Nc1nc2ccc(-c3ccc(NC(=O)Cc4ccc(F)cc4)cc3)cn2n1 [Example 02.08, 2-(4-fluorophenyl)-N-[4-(2-{[2-methoxy-4-(4-methylpiperazin-1-yl)phenyl]amino}[,2]-triazolo[1,5-a]pyridin-6-yl)phenyl]acetamide trifluoroacetate] | 1.05
11 | O=C(Cc1ccc(F)cc1)Nc1ccc(-c2ccc3nc(Nc4ccc(C(=O)N5CCOCC5)cc4OC(F)(F)F)nn3c2)cc1 [Example 02.10, 2-(4-fluorophenyl)-N-[4-(2-{[4-(morpholin-4-ylcarbonyl)-2-(trifluoromethoxy)phenyl]amino}[,2]-triazolo[1,5-a]pyridin-6-yl)phenyl]acetamide] | ≤ 1
12 | CCOc1cc(N2CCOC2=O)ccc1Nc1nc2ccc(-c3ccc(NC(=O)Cc4ccc(F)cc4)cc3)cn2n1 [Example 02.12, N-[4-(2-{[2-ethoxy-4-(2-oxo-1,3-oxazolidin-3-yl)phenyl]amino}[,2]-triazolo[1,5-a]pyridin-6-yl)phenyl]-2-(4-fluorophenyl)acetamide] | ≤ 1
13 | Cc1cc(N2CCOC2=O)ncc1Nc1nc2ccc(-c3ccc(NC(=O)Cc4ccc(F)cc4)cc3)cn2n1 [Example 02.13, 2-(4-fluorophenyl)-N-[4-(2-{[4-methyl-6-(2-oxo-1,3-oxazolidin-3-yl)pyridin-3-yl]amino}[,2]-triazolo[1,5-a]pyridin-6-yl)phenyl]acetamide] | ≤ 1
14 | COc1cc(C2=NCCO2)ccc1Nc1nc2ccc(-c3ccc(NC(=O)Cc4ccc(F)cc4)cc3)cn2n1 [Example 02.14, N-[4-(2-{[4-(4,5-dihydro-1,3-oxazol-2-yl)-2-methoxyphenyl]amino}[,2]-triazolo[1,5-a]pyridin-6-yl)phenyl]-2-(4-fluorophenyl)acetamide] | ≤ 1
15 | Cc1cc(C2=NCCO2)ccc1Nc1nc2ccc(-c3ccc(NC(=O)Cc4ccc(F)cc4)cc3)cn2n1 [Example 02.15, N-[4-(2-{[4-(4,5-dihydro-1,3-oxazol-2-yl)-2-methylphenyl]amino}[,2]triazolo[1,5-a]pyridin-6-yl)phenyl]-2-(4-fluorophenyl)acetamide] | ≤ 1
16 | COc1cc(C(=O)N2CCS(=O)(=O)CC2)ccc1Nc1nc2ccc(-c3ccc(NC(=O)Cc4ccc(F)cc4)cc3)cn2n1 [Example 02.18, N-{4-[2-({4-[(1,1-dioxidothiomorpholin-4-yl)carbonyl]-2-methoxyphenyl}amino)[,2]triazolo[1,5-a]pyridin-6-yl]phenyl}-2-(4-fluorophenyl)acetamide] | ≤ 1
17 | COc1cc(C(=O)N2CC(O)C2)ccc1Nc1nc2ccc(-c3ccc(NC(=O)Cc4ccc(F)cc4)cc3)cn2n1 [Example 02.19, 2-(4-fluorophenyl)-N-{4-[2-({4-[(3-hydroxyazetidin-1-yl)carbonyl]-2-methoxyphenyl}amino)[,2]triazolo[1,5-a]pyridin-6-yl]phenyl}acetamide] | ≤ 1
18 | COc1cc(C(=O)N2CCC(O)CC2)ccc1Nc1nc2ccc(-c3ccc(NC(=O)Cc4ccc(F)cc4)cc3)cn2n1 [Example 02.20, 2-(4-fluorophenyl)-N-{4-[2-({4-[(4-hydroxypiperidin-1-yl)carbonyl]-2-methoxyphenyl}amino)[,2]triazolo[1,5-a]pyridin-6-yl]phenyl}acetamide] | ≤ 1
19 | COc1cc(C(=O)NC2COC2)ccc1Nc1nc2ccc(-c3ccc(NC(=O)Cc4ccc(F)cc4)cc3)cn2n1 [Example 02.21, 4-{[6-(4-{[(4-fluorophenyl)acetyl]amino}phenyl)[,2]triazolo[1,5-a]pyridin-2-yl]amino}-3-methoxy-N-(oxetan-3-yl)benzamide] | ≤ 1
20 | COc1cc(C(=O)N2CCC2)ccc1Nc1nc2ccc(-c3ccc(NC(=O)Cc4ccc(F)cc4)cc3)cn2n1 [Example 02.22, N-[4-(2-{[4-(azetidin-1-ylcarbonyl)-2-methoxyphenyl]amino}[,2]-triazolo[1,5-a]pyridin-6-yl)phenyl]-2-(4-fluorophenyl)acetamide] | ≤ 1
21 | CCOc1cc(C(=O)N2CC3(COC3)C2)ccc1Nc1nc2ccc(-c3ccc(NC(=O)Cc4ccc(F)cc4)cc3)cn2n1 [Example 02.23, N-[4-(2-{[2-ethoxy-4-(2-oxa-6-azaspiro[3.3]hept-6-ylcarbonyl)phenyl]amino}[,2]triazolo[1,5-a]pyridin-6-yl)phenyl]-2-(4-fluorophenyl)acetamide] | ≤ 1
22 | CCOc1cc(C(=O)N2CC(O)C2)ccc1Nc1nc2ccc(-c3ccc(NC(=O)Cc4ccc(F)cc4)cc3)cn2n1 [Example 02.24, N-{4-[2-({2-ethoxy-4-[(3-hydroxyazetidin-1-yl)carbonyl]phenyl}amino)[,2]triazolo[1,5-a]pyridin-6-yl]phenyl}-2-(4-fluorophenyl)acetamide] | ≤ 1
23 | CCOc1cc(C(=O)NC2CCN(C)CC2)ccc1Nc1nc2ccc(-c3ccc(NC(=O)Cc4ccc(F)cc4)cc3)cn2n1 [Example 02.25, 3-ethoxy-4-{[6-(4-{[(4-fluorophenyl)acetyl]amino}phenyl)[,2]-triazolo[1,5-a]pyridin-2-yl]amino}-N-(1-methylpiperidin-4-yl)benzamide] | ≤ 1
24 | O=C(Cc1ccc(F)cc1)Nc1ccc(-c2ccc3nc(Nc4ccc(C(=O)N5CC6(COC6)C5)cc4OCC(F)(F)F)nn3c2)cc1 [Example 02.26, 2-(4-fluorophenyl)-N-[4-(2-{[4-(2-oxa-6-azaspiro[3.3]hept-6-ylcarbonyl)-2-(2,2,2-trifluoroethoxy)phenyl]amino}[,2]triazolo[1,5-a]pyridin-6-yl)phenyl]acetamide] | ≤ 1
25 | O=C(Cc1ccc(F)cc1)Nc1ccc(-c2ccc3nc(Nc4ccc(C(=O)N5CC(O)C5)cc4OCC(F)(F)F)nn3c2)cc1 [Example 02.27, 2-(4-fluorophenyl)-N-{4-[2-({4-[(3-hydroxyazetidin-1-yl)carbonyl]-2-(2,2,2-trifluoroethoxy)phenyl}amino)[,2]triazolo[1,5-a]pyridin-6-yl]phenyl}acetamide] | ≤ 1
26 | COc1cc(N2CCN(C)CC2)ccc1Nc1nc2ccc(-c3ccc(NC(=O)Cc4ccc(F)cc4)cc3)cn2n1 [Example 02.28, 2-(4-fluorophenyl)-N-[4-(2-{[2-methoxy-4-(4-methylpiperazin-1-yl)phenyl]amino}[,2]-triazolo[1,5-a]pyridin-6-yl)phenyl]acetamide] | ≤ 1
